Measurements published in ChEMBL document CHEMBL3997790, “The oxidative induction of DNA lesions in cancer cells by 5-thio-d-glucose and 6-thio-d-fructopyranose and their genotoxic effects. Part 3” (Bioorg Med Chem Lett, 2017).
Calls of active or inactive are those of the source. The rule behind the calls is not given here.

Key:
[1] = tested on: HeLa; test: Induction of DNA damage in human HeLa cells at 0.1 mM in presence of antioxidant epikatehin after 1 hr by alkaline comet assay; format: functional, cell-based
[2] = tested on: HeLa; test: Induction of DNA damage in human HeLa cells assessed as increase in oxidative DNA lesions by measuring oxidized purines at 0.1 mM preincubated for 1 hr followed by formamidopyrimidine DNA glycosylase addition measured after 30 mins by alkaline comet assay; format: functional, cell-based
[3] = tested on: HeLa; test: Upregulation of NOX5 mRNA expression in human HeLa cells at 0.5 mM after 1 hr by qRT-PCR method; format: functional, cell-based
[4] = tested on: HeLa; test: Geno-toxicity in human HeLa cells assessed as induction of DNA damage at 0.2 mM at 4 degC by alkaline comet assay; format: functional, cell-based
[5] = tested on: HeLa; test: Cytotoxicity against human HeLa cells assessed as decrease in cell viability at 0.5 mM in presence of 5 mM glucose after 14 hrs by WST-8 based CCK-8 assay; format: functional
[6] = tested on: HeLa; test: Geno-toxicity in human HeLa cells assessed as induction of DNA damage by measuring double stranded DNA breaks at 0.19 to 0.76 mM after 1 hr by neutral comet assay; format: functional, cell-based
[7] = tested on: HeLa; test: Induction of oxidative DNA damage in human HeLa cells at 0.19 to 0.76 mM in presence of PBN spin trap after 1 hr by alkaline comet assay; format: functional, cell-based
[8] = tested on: HeLa; test: Geno-toxicity in human HeLa cells assessed as induction of DNA damage at 0.5 mM in presence of 5 mM glucose after 1 hr by alkaline comet assay; format: functional, cell-based
[9] = tested on: HeLa; test: Induction of mitochondrial membrane depolarization in human HeLa cells at 0.5 mM by JC-1 staining based flow cytometry; format: functional, cell-based
[10] = tested on: HeLa; test: Geno-toxicity in human HeLa cells assessed as induction of DNA damage at pH 12.1 after 1 hr by comet assay; format: functional, cell-based
[11] = tested on: HeLa; test: Upregulation of FHL2 mRNA expression in human HeLa cells at 0.5 mM after 1 hr by qRT-PCR method; format: functional, cell-based
[12] = tested on: HeLa; test: Geno-toxicity in human HeLa cells assessed as induction of DNA damage at 0.2 mM at 37 degC by alkaline comet assay; format: functional, cell-based
[13] = tested on: HeLa; test: Induction of ROS production in human HeLa cells at 0.2 mM after 24 hrs by H2DCFDA probe based fluorescence assay; format: functional, cell-based
[14] = tested on: Escherichia coli DH5[alpha]; test: Induction of DNA damage in Escherichia coli DH5alpha supercoiled pUC19 DNA assessed as decrease in covalently closed circular DNA forms at 0.1 to 1 mM by ethidium bromide staining based agarose gel electrophoresis
[15] = tested on: Escherichia coli DH5[alpha]; test: Induction of DNA damage in Escherichia coli DH5alpha supercoiled pUC19 DNA assessed as increase in open circular forms at 0.1 to 1 mM by ethidium bromide staining based agarose gel electrophoresis
[16] = tested on: HeLa; test: Induction of DNA damage in human HeLa cells assessed as increase in oxidative DNA lesions by measuring oxidized purines at 0.1 mM preincubated for 1 hr followed by human 8-oxoguanine DNA N-glycosylase1 addition measured after 30 mins by alkaline comet assay; format: functional, cell-based
[17] = tested on: HeLa; test: Induction of DNA damage in human HeLa cells at 0.1 mM in presence of antioxidant vitamin E after 1 hr by alkaline comet assay; format: functional, cell-based
[18] = tested on: HeLa; test: Induction of apoptosis in human HeLa cells at 0.5 mM after 4 hrs by Annexin-V-FITC/PI staining based flow cytometry; format: functional, cell-based
[19] = tested on: HeLa; test: Geno-toxicity in human HeLa cells assessed as induction of DNA damage at 0.2 mM by alkaline comet assay; format: functional, cell-based; conditions: TDE = time-dependent effect
[20] = tested on: Escherichia coli DH5[alpha]; test: Induction of DNA damage in Escherichia coli DH5alpha supercoiled pUC19 DNA assessed as increase in linear DNA forms at 0.1 to 1 mM by ethidium bromide staining based agarose gel electrophoresis
[21] = tested on: HeLa; test: Induction of DNA damage in human HeLa cells assessed as increase in oxidative DNA lesions by measuring oxidized pyrimidines at 0.1 mM preincubated for 1 hr followed by endonuclease3 addition measured after 30 mins by alkaline comet assay; format: functional, cell-based
[22] = tested on: HeLa; test: Geno-toxicity in human HeLa cells assessed as induction of DNA damage after 1 hr by alkaline comet assay; format: functional, cell-based
[23] = tested on: HeLa; test: Down regulation of NCOA7 mRNA expression in human HeLa cells at 0.5 mM after 1 hr by qRT-PCR method; format: functional, cell-based
[24] = tested on: HeLa; test: Cytotoxicity against human HeLa cells assessed as decrease in cell viability at 0.6 mM in presence of 5 mM glucose after 14 hrs by WST-8 based CCK-8 assay; format: functional
[25] = tested on: HeLa; test: Geno-toxicity in human HeLa cells assessed as induction of DNA damage at 0.1 mM at 37 degC by alkaline comet assay; format: functional, cell-based
[26] = tested on: HeLa; test: Induction of ROS production in human HeLa cells at 0.1 mM after 24 hrs by H2DCFDA probe based fluorescence assay; format: functional, cell-based
[27] = tested on: HeLa; test: Induction of oxidative DNA damage in human HeLa cells at 0.05 to 0.5 mM in presence of PBN spin trap after 1 hr by alkaline comet assay; format: functional, cell-based
[28] = tested on: HeLa; test: Geno-toxicity in human HeLa cells assessed as induction of DNA damage by measuring double stranded DNA breaks at 0.02 to 0.5 mM after 1 hr by neutral comet assay; format: functional, cell-based
[29] = tested on: HeLa; test: Geno-toxicity in human HeLa cells assessed as induction of DNA damage at 0.6 mM in presence of 5 mM glucose after 1 hr by alkaline comet assay; format: functional, cell-based
[30] = tested on: HeLa; test: Geno-toxicity in human HeLa cells assessed as induction of DNA damage at 0.1 mM at 4 degC by alkaline comet assay; format: functional, cell-based
[31] = tested on: HeLa; test: Geno-toxicity in human HeLa cells assessed as induction of DNA damage at 0.1 mM by alkaline comet assay; format: functional, cell-based; conditions: TDE = time-dependent effect

Row | SMILES | Activity [1] | Activity [2] | Activity [3] | Activity [9] | Activity [10] | Activity [11] | Activity [14] | Activity [15] | Activity [16] | Activity [17] | Activity [18] | Activity [20] | Activity [21] | Activity [22] | Activity [23] | further results
1 | OC[C@@]1(O)SC[C@@H](O)[C@@H](O)[C@@H]1O | inactive | Active | Active | inactive | Dose-dependent effect | Active | inactive | inactive | Active | inactive | inactive | inactive | Active | Dose-dependent effect | Active | Activity [4]: Active; Activity [5]: Active; Activity [6]: inactive; Activity [7]: inactive; Activity [8]: Active; Activity [12]: inactive; Activity [13]: Active; Activity [19]: Tde
2 | OC[C@H]1SC(O)[C@H](O)[C@@H](O)[C@@H]1O (stereo partly specified) | inactive | Active | Active | inactive | Dose-dependent effect | Active | inactive | inactive | Active | inactive | inactive | inactive | Active | Dose-dependent effect | Active | Activity [24]: Active; Activity [25]: inactive; Activity [26]: Active; Activity [27]: inactive; Activity [28]: inactive; Activity [29]: Active; Activity [30]: Active; Activity [31]: Tde
